{
  "source": "paper PMC7746945",
  "about": "(Neuro-Oncology, 2020)",
  "key": {"MDR1": {"target": "T1, MDR1 (Homo sapiens, UniProt P08183)", "T1 construct": "host or cells: MDCKII (Madin-Darby canine kidney type II) cells stably expressing human MDR1 cDNA", "experiment": "Directional transport of [14C]-olaparib across MDCKII-MDR1 monolayers, with or without ketoconazole", "format": "in vitro ADME", "description": "(§1) Canine kidney epithelial cells, stably expressing human MDR1 cDNA (Madin-Darby canine kidney type II [MDCKII]–MDR1 cells) or empty vector (MDCKII control), were used to model the intact BBB and determine permeability coefficients of (^14C)-olaparib in the presence of ketoconazole (25 μM). Whole body autoradiography was performed on male pigmented rats after single oral administration of [^14C]-olaparib (15 mg/kg; 5 MBq/kg). For autoradiography studies, animal care and experiments were carried out in accordance with AstraZeneca guidelines, which comply with UK standards. […] Xenograft experiments were performed under the relevant UK Home Office Project Licence and carried out with ethical approval from the University of Glasgow under the Animal (Scientific Procedures) Act 1986 and the EU directive 2010. Mice were maintained in individually ventilated cages with environmental enrichment and following the guidelines of ARRIVE (Animal Research: Reporting of In Vivo Experiments). […] Ratiometric t-test analysis determined SER confidence intervals and P-values. Further details are available in the Supplementary Material.\nApparent permeability coefficients were calculated for apical to basolateral (Papp a‒b) and basolateral to apical transport (Papp b‒a) as described in Methods. […] (B) Single oral doses of 15 mg/kg [14C]-olaparib were administered to male pigmented rats that were subsequently culled, sectioned, and subjected to whole body autoradiography at the timepoints shown. Radioactivity was excluded from the central nervous system in all animals at all timepoints. […] Blood, tumor, and contralateral (non tumor bearing) brain were harvested and snap frozen at the time points shown. […] Note different y-axis scales.\nMonolayers were cultured in Dulbeco’s Modified Eagle Medium (DMEM) supplemented with glucose (4.5 g/L), 10% fetal calf serum, penicillin and streptomycin on semi-permeable filter inserts (Transwell plates 3401, Costar, Cambridge, MA) for three days. Under these conditions MDR1 localises to the apical plasma membrane. Monolayer integrity was assessed by transepithelial electrical resistance (TEER) measurement then inserts washed with Hank’s Balanced Salt Solution (HBSS) and transferred to 12-well plates containing HBSS (to measure apical to basal transport, a – b) or [14C]-olaparib diluted in HBSS (dose solution, to measure basal to apical transport, b – a). After addition of dose solution (a – b) or HBSS (b – a) to the apical chamber, samples of apical and basolateral compartments were collected immediately after dosing and after 120 minutes incubation. Three concentrations of 14C-olaparib were tested (0.1, 1 and 10 µM), each in three replicates. Radioactivity was determined by liquid scintillation counting. […] Transport of olaparib or reference substrate cimetidine was determined in MDCKII-BCRP cells. Apparent permeability coefficients (Papp) were calculated:\nEfflux ratio = Papp b - a /a - b = Papp b - a / Papp a - b (mean)\nMDCKII corrected efflux ratio =\nPapp b - a /a - b ratio in transfected MDCKII cells\nPapp b - a /a - b ratio in MDCKII control cells (mean)"}, "[1]": {"experiment": "Clinical PK: olaparib in tumor core, tumor margin and plasma of recurrent GBM patients (LC-MS)", "format": "in vivo, human", "conditions": "for Kp: human, tumor and plasma, oral, ratio between tumor and plasma olaparib concentrations, surgical patients", "description": "At neurosurgery, contrast-enhancing tumor regions identified on preoperative MRI scans were targeted for resection. Specimens were assessed by intraoperative cytology; 3 regions of viable, solid tumor from each patient were snap frozen for PK analysis by liquid chromatography mass spectrometry (LC-MS). In the expansion cohort, 5-ALA guided neurosurgery enabled discrimination of fluorescent “core” tissue from nonfluorescent “margin” tissue. Up to 3 tumor margin biopsies were taken from each patient, from each of which half was frozen for PK analysis and half fixed for histology.\n100 mg q.d., n = 10; 150 mg q.d., n = 35; 200 mg b.i.d., n = 3. […] All measurements performed by LC-MS."}, "E2 cells": {"test_system": "E2 cells", "experiment": "Clonogenic survival radiosensitization assay", "format": "cell-based, human", "conditions": "E2, MGMT methylated, 1–5 Gy", "description": "as §1\n(§2) Visible colonies containing at least 50 cells were counted 14–21 days after treatment and surviving fraction calculated. The linear quadratic model was fitted using maximum likelihood estimation and integrated to determine the mean inactivation dose (MID) for each experimental condition."}, "G1 cells": {"test_system": "G1 cells", "experiment": "Clonogenic survival radiosensitization assay", "format": "cell-based, human", "conditions": "G1, MGMT methylated, olaparib 100 nM, 1–5 Gy", "description": "as §1, §2"}, "G7 cells": {"test_system": "G7 cells", "experiment": "Clonogenic survival radiosensitization assay", "format": "cell-based, human", "conditions": "G7, MGMT methylated, 1–5 Gy", "description": "as §1, §2"}, "R10 cells": {"test_system": "R10 cells", "experiment": "Clonogenic survival radiosensitization assay", "format": "cell-based, human", "conditions": "R10, MGMT methylated, 1–5 Gy", "description": "as §1, §2"}, "T98G cells": {"test_system": "T98G cells", "experiment": "Clonogenic survival radiosensitization assay", "format": "cell-based, human", "conditions": "MGMT unmethylated, 1–5 Gy", "description": "as §1, §2"}, "UVW cells": {"test_system": "UVW cells", "experiment": "Clonogenic survival radiosensitization assay", "format": "cell-based, human", "conditions": "MGMT methylated, 1–5 Gy", "description": "as §1, §2"}, "[2]": {"conditions": "MDCK-MDR1, with ketoconazole 25 µM, read-out: Papp b-a + ketoconazole (SD)"}, "[3]": {"conditions": "200 mg b.i.d. for 7 doses before resection, 9 samples from 3 patients"}, "[4]": {"conditions": "21 tumor margin samples, 9 dose expansion patients"}},
  "note": "Where two headings read alike, the source gives them in different places.",
  "data": [
    {"smiles": "O=C(c1cc(Cc2n[nH]c(=O)c3ccccc23)ccc1F)N1CCN(C(=O)C2CC2)CC1", "note": "[olaparib, 4-[3-(4-cyclopropanecarbonylpiperazine-1-carbonyl)-4-fluorobenzyl]-2H-phthalazin-1-one]", "values": [
      {"measurement": "Papp A→B at 120 min, 1 µM", "setting": "MDR1; MDCK-MDR1", "value": 0.28, "unit": "×10⁻⁶ cm/s"},
      {"measurement": "Papp A→B at 120 min, 10 µM", "setting": "MDR1; MDCK-MDR1", "value": 0.58, "unit": "×10⁻⁶ cm/s"},
      {"measurement": "Papp B→A at 120 min, 1 µM", "setting": "MDR1; MDCK-MDR1", "value": 40.6, "unit": "×10⁻⁶ cm/s"},
      {"measurement": "Papp B→A at 120 min, 10 µM", "setting": "MDR1; MDCK-MDR1, read-out: Papp b-a (SD)", "value": 39.4, "unit": "×10⁻⁶ cm/s"},
      {"measurement": "Papp B→A at 120 min, 1 µM", "setting": "MDR1; [2]", "value": 24.1, "unit": "×10⁻⁶ cm/s"},
      {"measurement": "Papp B→A at 120 min, 10 µM", "setting": "MDR1; [2]", "value": 17.1, "unit": "×10⁻⁶ cm/s"},
      {"measurement": "mean olaparib concentration in stage 1 tumor samples", "setting": "[1]; [3]", "value": 471, "unit": "nM"},
      {"measurement": "olaparib concentration in stage 1 tumor samples, range", "setting": "[1]; [3]", "value": "164 to 992", "unit": "nM"},
      {"measurement": "tumor margin specimens with olaparib detected", "setting": "[1]; 9 patients", "value": "21/21"},
      {"measurement": "tumor margin olaparib concentration, median", "setting": "[1]; [4]", "value": 512.3, "unit": "nM"},
      {"measurement": "tumor margin olaparib concentration, range", "setting": "[1]; [4]", "value": "97 to 1237", "unit": "nM"},
      {"measurement": "tumor core specimens with olaparib detected", "setting": "[1]; 27 patients", "value": "71/71"},
      {"measurement": "tumor core olaparib concentration, range", "setting": "[1]; 71 tumor core samples, 27 surgical patients", "value": "97 to 1374", "unit": "nM"},
      {"measurement": "tumor core olaparib concentration, median", "setting": "[1]; 71 tumor core samples, 27 surgical patients, 3–5 hours after final preoperative dose", "value": 496, "unit": "nM"},
      {"measurement": "Kp", "setting": "[1]; mean", "value": 0.25},
      {"measurement": "Kp", "setting": "[1]; range", "value": "0.01 to 0.9"},
      {"measurement": "tumor olaparib concentrations, range in all specimens", "setting": "[1]; tumor core and margin", "value": "100 to 1000", "unit": "nM"},
      {"measurement": "SER (95% CI) 100nM", "setting": "E2 cells; olaparib 100 nM", "value": "1.237 (1.065 - 1.441)"},
      {"measurement": "SER (95% CI) 500nM", "setting": "E2 cells; olaparib 500 nM", "value": "1.221 (1.076 - 1.378)"},
      {"measurement": "SER (95% CI) 100nM", "setting": "G1 cells", "value": "1.225 (1.01 - 1.513)"},
      {"measurement": "SER (95% CI) 100nM", "setting": "G7 cells; olaparib 100 nM", "value": "1.105 (1.018 - 1.200)"},
      {"measurement": "SER (95% CI) 500nM", "setting": "G7 cells; olaparib 500 nM", "value": "1.188 (1.029 - 1.390)"},
      {"measurement": "SER (95% CI) 100nM", "setting": "R10 cells; olaparib 100 nM", "value": "1.266 (0.991 - 1.565)"},
      {"measurement": "SER (95% CI) 500nM", "setting": "R10 cells; olaparib 500 nM", "value": "1.281 (0.966 - 1.721)"},
      {"measurement": "SER (95% CI) 100nM", "setting": "T98G cells; olaparib 100 nM", "value": "1.42 (1.128 - 1.883)"},
      {"measurement": "SER (95% CI) 500nM", "setting": "T98G cells; olaparib 500 nM", "value": "1.584 (1.464 - 1.71)"},
      {"measurement": "SER (95% CI) 100nM", "setting": "UVW cells; olaparib 100 nM", "value": "1.478 (1.28 - 1.726)"},
      {"measurement": "SER (95% CI) 500nM", "setting": "UVW cells; olaparib 500 nM", "value": "1.695 (1.407 - 2.098)"}
    ]}
  ]
}
